pIC50, pKi: −log10 of the molar value.
Experiments:
human recombinant CYP2D6 = target: T1, human recombinant CYP2D6 (Homo sapiens, UniProt P10635); assay: CYP2D6 inhibition, MAMC substrate; type: in vitro ADME; conditions: microsomes with human recombinant CYP2D6; read-out: CYP2D6 Isoenzyme IC50
T1 construct: purchased BD Bioscience
Procedure: Protocol. […] The source of the enzyme was microsomes containing human recombinant CYP2D6 obtained from BD Bioscience. Conversion of MAMC to 7-hydroxy-4-(aminomethyl)coumarin was measured using a PerkinElmer Fusion with a 390 nm excitation filter and a 460 nm emission filter.

[1] = target: T2, cloned human NE transporter (hNET) (Homo sapiens, UniProt P23975); assay: NE transporter binding assay, [3H]nisoxetine; conditions: membranes of CHO cells expressing hNET; read-out: NET Ki
T2 construct: expressed in transfected cells; host or cells: CHO cells
Procedure: Protocols. For the NE transporter binding assay, [^3H]nisoxetine (1.0 nM) was incubated with various concentrations of test compounds for 2 hours at 4° C. with membranes prepared from Chinese hamster ovary cells (CHO) cells heterologously expressing the cloned human NE transporter (hNET). Bound radioactivity was determined by scintillation spectroscopy.

[2] = tested on: rat hindpaw incision model; assay: rat hindpaw incisional pain model, tactile allodynia; type: in vivo; conditions: 30 mg/kg IP, 24 hours post-surgery
Procedure: Protocol. A time course experiment was also performed with (−)-beloxepin in the hindpaw incision model. At 24 hours post-surgery, rats received vehicle or (−)-beloxepin (30 mg/kg IP). Rats were tested for tactile allodynia at 30, 60, 120 and 240 minutes after administration of (−)-beloxepin.
Protocol. Another time course experiment was performed with (+)-beloxepin in the hindpaw incision model. At 24 hours post-surgery, rats received vehicle or (+)-beloxepin (30 mg/kg IP). Rats were tested for tactile allodynia at 30, 60, 120 and 240 minutes after administration of (+)-beloxepin.

[3] = target: T3, cloned human 5HT2B receptor (Homo sapiens, UniProt P41595); assay: 5HT2B functional assay, intracellular Ca2+ in CHO cells; type: cell-based
T3 construct: expressed in transfected cells; host or cells: CHO cells
Procedure: Agonist effects at the 5HT2B receptor were assessed by incubation at 22° C. of a series of concentrations of test compound with intact CHO cells heterologously expressing the cloned human 5HT2B receptor and measuring intracellular [Ca^2+] by fluorimetry according to the method of Porter et al., 1991, Brit. J. Pharmacol. 128:13-20. Antagonist effects were assessed by the ability of a series of concentrations of test compound to block the increase in intracellular [Ca^2+] that occurred in the presence of 0.3 nM serotonin under the same conditions. EC50 and IC50 values were determined using standard methods.

[4] = target: T4, cloned human 5HT2C receptor (Homo sapiens, UniProt P28335); assay: 5HT2C receptor binding assay, [3H]mesulergine; conditions: CHO membranes
T4 construct: expressed in transfected cells; host or cells: CHO cells
T4 sequence (P28335 33-458): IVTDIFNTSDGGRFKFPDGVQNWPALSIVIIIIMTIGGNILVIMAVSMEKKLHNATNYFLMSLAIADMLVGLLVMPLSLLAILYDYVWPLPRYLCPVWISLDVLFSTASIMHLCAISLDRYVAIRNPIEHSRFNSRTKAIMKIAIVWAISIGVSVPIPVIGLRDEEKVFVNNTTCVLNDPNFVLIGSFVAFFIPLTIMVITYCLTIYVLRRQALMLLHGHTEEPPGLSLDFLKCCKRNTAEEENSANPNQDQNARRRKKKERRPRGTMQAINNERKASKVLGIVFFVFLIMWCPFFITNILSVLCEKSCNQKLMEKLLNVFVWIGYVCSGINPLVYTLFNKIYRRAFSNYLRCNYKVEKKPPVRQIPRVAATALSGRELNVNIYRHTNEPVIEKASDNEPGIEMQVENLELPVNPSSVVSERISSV
Procedure: For the 5HT2C receptor binding assay, [^3H]mesulergine (1.0 nM) was incubated for 60 min at 37° C. with membranes prepared from Chinese hamster ovary cells heterologously expressing the cloned human 5-HT2C receptor according to the method of Stam et al., 1994, Eur. J. Pharmacol. 269:339-348. Various concentrations of test compound were added and bound radioactivity was determined by scintillation counting. Non-specific binding was determined in the presence of 10 μM RS102221. The Ki value for the test compound was determined using standard methods.

L5 SNL rats = assay: L5 Single Nerve Ligation model of neuropathic pain, tactile allodynia (von Frey); type: in vivo, rat
Procedure: Protocol. The antiallodynic activity of (−)-beloxepin was tested in vivo using the L5—Single Nerve Ligation model of non-nociceptive neuropathic pain as described in LaBuda & Little, 2005, J. Neurosci. Methods 144:175-181. The test animals were placed in a Plexiglas chamber (10 cm×20 cm×25 cm) and habituated for 15 minutes. The chamber was positioned on top of a mesh screen so that von Frey monofilaments could be presented to the plantar surface of both hindpaws. Measurement of tactile sensitivity for each hind paw were obtained using the up/down method (Dixon, 1980, Annu. Rev. Pharmacol. Toxicol. 20:441-462) with seven Frey monofilaments (0.4, 1, 2, 4, 6, 8 and 15 grams). Each trial started with a von Frey force of 2 grams delivered to the right hind paw for approximately 1-2 seconds and then the left hind paw. If there was no withdrawal response, the next higher force was delivered. If there was a response, the next lower force was delivered. This procedure was performed until no response was made at the highest force (15 grams) or until four stimuli were administered following the initial response. The 50% paw withdrawal threshold for each paw was calculated using the following formula: [Xth]log=[vFr]log+ky, where [vFr] is the force of the last von Frey used, k=0.2249 which is the average interval (in log units) between the von Frey monofilaments, and y is a value that depends upon the pattern of withdrawal responses (Dixon, 1980, supra). […] Testing for tactile sensitivity was performed twice and the mean 50% withdrawal value assigned as the tactile sensitivity for the right and left paws for each animal.
Results. The antiallodynic effects produced by (−)-beloxepin (30 mg/kg IP) and (+)-beloxepin (30 mg/kg IP) in L5 SNL rats 8 days post surgery are illustrated in FIG. 1. In this experiment, at 8 days post surgery, rats were treated with vehicle or beloxepin enantiomers (30 mg/kg IP) and tested for tactile allodynia at 30 min post treatment. […] No side effects were observed following treatment with either enantiomer.
The antiallodynic effects produced by (−)-beloxepin (30 mg/kg IP) in L5 SNL rats 14 days post surgery are illustrated in FIG. 2. In this experiment, at 14 days post surgery, rats were treated with vehicle or (−)-beloxepin and tested for tactile allodynia at 30, 60, 120 and 240 min post treatment. Vehicle treated rats were tested at 30 min post treatment.
Protocol. A time course experiment was performed with (−)-beloxepin (60 mg/kg PO) in L5 SNL rats at 7 days post-surgery. Rats were tested at 30, 60, 120, and 240 minutes post-drug.
Protocol. A time course experiment was also performed with (+)-beloxepin (60 mg/kg PO) in L5 SNL rats at 14 days post-surgery. Rats were tested at 30, 60, 120, and 240 minutes post-drug.

T3 sequence (P41595 whole entry): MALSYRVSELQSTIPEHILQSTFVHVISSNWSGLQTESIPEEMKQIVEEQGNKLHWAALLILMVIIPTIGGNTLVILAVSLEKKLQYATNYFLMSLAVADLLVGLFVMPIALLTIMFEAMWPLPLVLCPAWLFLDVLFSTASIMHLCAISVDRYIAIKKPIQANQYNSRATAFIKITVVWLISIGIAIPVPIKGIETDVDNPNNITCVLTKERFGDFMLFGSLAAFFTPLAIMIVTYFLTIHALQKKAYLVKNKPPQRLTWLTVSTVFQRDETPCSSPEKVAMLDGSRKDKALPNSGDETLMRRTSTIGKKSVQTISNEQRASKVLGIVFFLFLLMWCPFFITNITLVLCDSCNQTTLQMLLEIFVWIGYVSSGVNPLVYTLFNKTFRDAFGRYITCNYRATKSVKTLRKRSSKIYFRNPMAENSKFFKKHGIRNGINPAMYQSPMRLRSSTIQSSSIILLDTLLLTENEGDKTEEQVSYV
T2 sequence (P23975 whole entry): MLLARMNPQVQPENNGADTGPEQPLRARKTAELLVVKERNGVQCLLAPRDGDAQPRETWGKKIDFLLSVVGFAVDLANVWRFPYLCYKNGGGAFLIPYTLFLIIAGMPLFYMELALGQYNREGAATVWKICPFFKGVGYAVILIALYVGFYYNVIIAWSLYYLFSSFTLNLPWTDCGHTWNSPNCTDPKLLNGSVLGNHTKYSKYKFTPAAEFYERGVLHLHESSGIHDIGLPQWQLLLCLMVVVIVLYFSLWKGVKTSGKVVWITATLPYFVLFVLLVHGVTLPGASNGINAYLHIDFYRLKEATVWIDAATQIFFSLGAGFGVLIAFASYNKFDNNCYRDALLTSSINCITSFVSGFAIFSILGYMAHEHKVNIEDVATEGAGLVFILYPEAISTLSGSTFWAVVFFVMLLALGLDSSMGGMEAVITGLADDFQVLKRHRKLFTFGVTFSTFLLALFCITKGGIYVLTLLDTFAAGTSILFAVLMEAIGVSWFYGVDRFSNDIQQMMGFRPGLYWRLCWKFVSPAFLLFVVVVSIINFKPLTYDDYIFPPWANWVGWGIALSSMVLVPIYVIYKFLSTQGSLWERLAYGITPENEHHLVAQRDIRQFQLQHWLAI
T1 sequence (P10635 whole entry): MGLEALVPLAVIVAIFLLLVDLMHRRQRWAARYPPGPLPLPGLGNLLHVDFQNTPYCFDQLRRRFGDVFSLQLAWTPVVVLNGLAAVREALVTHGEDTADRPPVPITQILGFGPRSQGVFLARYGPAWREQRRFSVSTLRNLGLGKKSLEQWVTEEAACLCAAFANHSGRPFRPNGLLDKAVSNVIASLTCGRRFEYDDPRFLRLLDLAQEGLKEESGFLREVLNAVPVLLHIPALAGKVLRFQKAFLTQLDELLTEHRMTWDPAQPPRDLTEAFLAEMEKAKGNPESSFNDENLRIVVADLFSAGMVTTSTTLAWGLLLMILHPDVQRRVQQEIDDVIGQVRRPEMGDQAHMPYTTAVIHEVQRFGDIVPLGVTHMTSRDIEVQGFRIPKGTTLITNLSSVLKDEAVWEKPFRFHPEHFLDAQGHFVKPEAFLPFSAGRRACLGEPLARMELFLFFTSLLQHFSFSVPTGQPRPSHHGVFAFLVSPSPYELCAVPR

Cc1cccc2c1Oc1ccccc1C1(O)CCN(C)CC21 (single isomer, unassigned; (+)) [(+)-beloxepin]
pIC50 (human recombinant CYP2D6): 6.63
pKi [1]: 5.53
maximum hindpaw withdrawal threshold ([2]; 30 minute time point): ~28 grams
antiallodynic effect ([2]; tested 30, 60, 120, 240 min): significant antiallodynic effect at the 30 and 60 minute time points
5HT2B functional activity type [3]: antagonist
pIC50 ([3]; antagonist mode, vs 0.3 nM serotonin): 6.16
pKi [4]: 7.08
antiallodynic effect (L5 SNL rats; 30 mg/kg IP, 8 days post surgery, 30 min post treatment): not statistically significant
antiallodynic effect (L5 SNL rats; 60 mg/kg PO, 14 days post-surgery, tested 30, 60, 120, 240 min): did not produce significant antiallodynic effects at any time point

From patent publication US20090233957A1, “(-)-BELOXEPIN AND METHODS FOR ITS SYNTHESIS AND USE” (priority 2008, published 2009)
